From ChEMBL document CHEMBL5390229, “Inhibiting HCMV pUL89-C Endonuclease with Metal-Binding Compounds” (J Med Chem, 2023)

What was measured:
[1] = system: Cytomegalovirus; assay: Antiviral activity against Human Cytomegalovirus assessed as inhibition of viral growth at 10 uM relative to control; type: functional; conditions: Human betaherpesvirus 5
[2] = Permeability of the compound at pH 7.4 by PAMPA method; type: ADME; conditions: for Papp: read-out: permeability
[3] = target: T1, Tripartite terminase subunit 3 (Human betaherpesvirus 5, UniProt P16732); assay: Inhibition of Human Cytomegalovirus C-terminal UL89 […] using (5-tcggtgcgggcctcttcgctattacgccagctggcgaaagggggatgtgctgcaaggcga as a substrate preincubated for 15 mins followed by substrate addition and measured after 30 mins by plate reader endonuclease assay
T1 sequence (P16732 whole entry): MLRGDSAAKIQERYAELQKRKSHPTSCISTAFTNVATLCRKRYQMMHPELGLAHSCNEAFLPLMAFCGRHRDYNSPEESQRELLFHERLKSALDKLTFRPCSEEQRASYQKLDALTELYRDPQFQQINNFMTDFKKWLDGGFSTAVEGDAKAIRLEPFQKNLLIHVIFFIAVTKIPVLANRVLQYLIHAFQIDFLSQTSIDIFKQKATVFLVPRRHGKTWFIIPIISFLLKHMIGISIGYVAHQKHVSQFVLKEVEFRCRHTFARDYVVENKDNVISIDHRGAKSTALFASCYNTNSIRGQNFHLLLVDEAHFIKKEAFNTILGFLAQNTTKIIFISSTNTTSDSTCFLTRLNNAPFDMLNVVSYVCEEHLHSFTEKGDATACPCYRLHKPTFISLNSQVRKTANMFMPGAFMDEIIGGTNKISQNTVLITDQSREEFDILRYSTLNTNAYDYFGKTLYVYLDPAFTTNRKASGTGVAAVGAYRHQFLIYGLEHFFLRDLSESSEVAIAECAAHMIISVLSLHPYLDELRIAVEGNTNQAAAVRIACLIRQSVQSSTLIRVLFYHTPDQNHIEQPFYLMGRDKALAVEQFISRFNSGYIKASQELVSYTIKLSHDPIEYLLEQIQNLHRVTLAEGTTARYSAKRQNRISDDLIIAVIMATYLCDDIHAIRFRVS

[4] = system: Cytomegalovirus; assay: Antiviral activity against Human Cytomegalovirus; conditions: Human betaherpesvirus 5
[5] = target: T2, Tripartite terminase subunit 3 (Human betaherpesvirus 5) (UniProt P16732); assay: Inhibition of Human Cytomegalovirus C-terminal UL89 […] using (5-tcggtgcgggcctcttcgctattacgccagctggcgaaagggggatgtgctgcaaggcga as a substrate preincubated for 15 mins followed by substrate addition at 20 uM and measured after 30 mins by plate reader endonuclease assay relative to control; conditions: time 45.0 min
T2 sequence (whole entry): T1 sequence (P16732 whole entry)

[6] = target: Human immunodeficiency virus type 1 integrase (Human immunodeficiency virus 1, UniProt Q7ZJM1, R263K); assay: Inhibition of HIV-1 integrase DTG-resistant R263K mutant
Sequence of Human immunodeficiency virus type 1 integrase (Human immunodeficiency virus 1, UniProt Q7ZJM1, R263K) (Q7ZJM1 entry or part of it R263K): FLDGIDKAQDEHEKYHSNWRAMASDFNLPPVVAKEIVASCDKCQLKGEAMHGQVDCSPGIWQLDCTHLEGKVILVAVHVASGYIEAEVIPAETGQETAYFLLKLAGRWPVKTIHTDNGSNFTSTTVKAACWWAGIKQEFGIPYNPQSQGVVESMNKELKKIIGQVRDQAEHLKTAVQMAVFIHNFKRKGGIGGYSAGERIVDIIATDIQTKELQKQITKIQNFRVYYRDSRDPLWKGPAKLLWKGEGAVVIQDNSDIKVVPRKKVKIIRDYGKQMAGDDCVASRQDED

[7] = Cytotoxicity against human HFF cells assessed as reduction in cell viability incubated for 72 hrs by MTT assay; type: toxicity, cell-based
[8] = Cytotoxicity against human HFF-1 cells assessed as induction of cell death incubated for 24 hrs by MTT assay; type: toxicity, cell-based
[9] = target: Hepatitis C virus NS5B RNA-dependent RNA polymerase (Hepatitis C virus, UniProt Q8JXU8); assay: Inhibition of Hepatitis C virus NS5B polymerase; parameters: species or system Hepacivirus hominis
Sequence of Hepatitis C virus NS5B RNA-dependent RNA polymerase (Q8JXU8 whole entry): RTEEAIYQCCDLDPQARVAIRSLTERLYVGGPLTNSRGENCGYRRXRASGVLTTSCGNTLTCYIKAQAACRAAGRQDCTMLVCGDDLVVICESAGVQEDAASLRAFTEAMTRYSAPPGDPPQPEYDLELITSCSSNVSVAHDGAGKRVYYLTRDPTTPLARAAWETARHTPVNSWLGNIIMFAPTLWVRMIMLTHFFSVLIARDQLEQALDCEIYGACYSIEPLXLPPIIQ

[10] = target: Human immunodeficiency virus type 1 integrase (Human immunodeficiency virus 1, UniProt Q7ZJM1, G140S/Q148K)
Sequence of Human immunodeficiency virus type 1 integrase (Human immunodeficiency virus 1, UniProt Q7ZJM1, G140S/Q148K) (Q7ZJM1 entry or part of it G140S/Q148K): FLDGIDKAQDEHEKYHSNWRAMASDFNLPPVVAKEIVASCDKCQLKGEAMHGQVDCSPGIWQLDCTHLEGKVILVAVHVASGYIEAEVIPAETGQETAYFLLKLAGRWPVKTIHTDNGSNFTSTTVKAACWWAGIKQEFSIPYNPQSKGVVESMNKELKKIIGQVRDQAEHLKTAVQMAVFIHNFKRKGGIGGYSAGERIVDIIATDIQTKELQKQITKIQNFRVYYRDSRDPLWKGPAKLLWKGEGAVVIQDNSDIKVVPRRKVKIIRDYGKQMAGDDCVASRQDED

[11] = system: Human immunodeficiency virus 1; assay: Antiviral activity against HIV-1 assessed as viral growth inhibition; type: functional, organism-based
[12] = target: T3, Human immunodeficiency virus type 1 reverse transcriptase (Human immunodeficiency virus 1, UniProt Q72547); assay: Inhibition of HIV-1 RNase H polymerase activity
[13] = target: T3, Human immunodeficiency virus type 1 reverse transcriptase; assay: Inhibition of HIV-1 reverse transcriptase associated RNA-dependent DNA polymerase
[14] = target: T3, Human immunodeficiency virus type 1 reverse transcriptase; assay: Inhibition of HIV-1 reverse transcriptase
[15] = system: HFF; assay: Cytotoxicity against human HFF cells assessed as reduction in cell viability; type: functional
[16] = system: Human immunodeficiency virus 1; assay: Antiviral activity against HIV-1 harboring integrase L74M mutant; type: functional, organism-based
[17] = target: Integrase (Human immunodeficiency virus 1, UniProt Q76353, Q148K); assay: Inhibition of HIV-1 integrase Q148K mutant
Sequence of Integrase (Q76353 entry or part of it Q148K): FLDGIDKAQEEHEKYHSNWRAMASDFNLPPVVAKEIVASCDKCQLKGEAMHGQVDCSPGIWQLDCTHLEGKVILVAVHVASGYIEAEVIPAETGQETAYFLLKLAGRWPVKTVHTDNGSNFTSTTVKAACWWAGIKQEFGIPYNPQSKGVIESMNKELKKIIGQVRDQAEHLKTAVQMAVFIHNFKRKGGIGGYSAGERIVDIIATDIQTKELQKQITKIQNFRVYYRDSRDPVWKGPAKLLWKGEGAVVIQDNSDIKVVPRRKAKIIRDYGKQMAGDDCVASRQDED

[18] = Selectivity index, ratio of CC50 for human HFF cells to EC50 for Human cytomegalovirus; type: toxicity; conditions: read-out: Ratio CC50/EC50
[19] = target: T1, Tripartite terminase subunit 3; assay: Inhibition of human Cytomegalovirus C-terminal UL89

`O=c1[nH]c2sc3c(c2c(=O)n1O)CCC3` showed an inhibition at 10 µM [1] of 19%, a Papp [2] of 0.4 ×10⁻⁶ cm/s and an IC50 [3] of 480 nM.
In the case of `O=c1[nH]c2ccsc2c(=O)n1O`, the inhibition at 10 µM [1] is reported as -11%, the Papp [2] is reported as 0.1 ×10⁻⁶ cm/s and the IC50 [3] is reported as 100 nM.
With `O=C(O)c1cn(Cc2ccc(F)cc2)cc(O)c1=O` the EC50 [4] was 10000 nM and the inhibition at 10 µM [1] was 39%.
For `O=c1[nH]c2c3c(sc2c(=O)n1O)CCC3`, the EC50 [4] was 220 nM, the inhibition at 10 µM [1] was -32% and the Papp [2] was 0.3 ×10⁻⁶ cm/s. For the same compound, the IC50 [3] was 220 nM.
For `COc1cn(Cc2ccc(F)cc2)cc(C(=O)NCc2ccc(F)cc2F)c1=O`, the EC50 [4] was over 50000 nM and the inhibition [5] was 6%.
For `O=C(O)C(=O)CC(=O)c1cccc(Cc2ccccc2)c1`, the IC50 [6] was 10 nM.
Work on `CCc1ccccc1Sc1cc(=O)n(O)c(=O)n1C` yielded a CC50 at 72 h [7] of 20000 nM.
Work on `O=c1[nH]c2sc3c(c2c(=O)n1O)CCN(Cc1ccccc1)C3` yielded an EC50 [4] of 15000 nM, a CC50 at 24 h [8] of over 50000 nM and an inhibition at 10 µM [1] of 59%. It also gave a Papp [2] of 0.2 ×10⁻⁶ cm/s and an IC50 [3] of 1100 nM.
Work on `O=C(O)c1nc(-c2cccs2)nc(O)c1O` yielded an IC50 [9] of 2600 nM.
`O=c1[nH]c2cc(-c3ccccc3)ccc2c(=O)n1O` gave an EC50 [4] of 13000 nM, an inhibition at 10 µM [1] of 91% and a Papp [2] of 2 ×10⁻⁶ cm/s. The IC50 [3] was 6400 nM.
In the case of `Cc1ccc(-c2ccc(Nc3cc(=O)n(O)c(=O)n3C)cc2)cc1`, the EC50 [4] is reported as 1200 nM and the IC50 [3] is reported as 2200 nM.
In the case of `COc1cccc(OC)c1-c1cccc(Nc2cc(=O)n(O)c(=O)[nH]2)c1`, the EC50 [4] is reported as 15000 nM and the IC50 [3] is reported as 14000 nM.
`O=C1c2ccccc2C(c2ccccc2F)C(=O)N1O` (centres undefined) gave an EC50 [4] of 6200 nM, an inhibition at 10 µM [1] of 68% and a Papp [2] of 3 ×10⁻⁶ cm/s. The IC50 [3] was 1400 nM.
For `O=c1c2cc(Cc3ccccc3)ccc2oc2ccc(O)c(O)c12`, the IC50 [6] was 600 nM.
In the case of `O=C(NCc1ccc(F)cc1)c1ncc2cccnc2c1O`, the IC50 [6] is reported as 33 nM.
Work on `NC(=O)c1cn(Cc2ccc(F)cc2)cc(O)c1=O` yielded an inhibition at 10 µM [1] of 50% and an IC50 [3] of over 50000 nM.
Compound `CCn1cc(O)c(=O)c(C(=O)O)c1` has an inhibition at 10 µM [1] of 14% and an IC50 [3] of over 25000 nM.
Work on `Cn1c(Nc2ccc(-c3cccc(C#N)c3)cc2)cc(=O)n(O)c1=O` yielded an EC50 [4] of 6200 nM and an IC50 [3] of 740 nM.
For `O=C(NCc1ccccc1)c1nc(-c2cccs2)nc(O)c1O`, the IC50 [10] was 2600 nM.
In the case of `CC(C)c1cn(COCc2ccccc2)c(=O)n(O)c1=O`, the EC50 [11] is reported as 8 nM, the IC50 [12] is reported as 2500 nM and the IC50 [13] is reported as 5400 nM. For the same compound, the CC50 at 72 h [7] was over 20000 nM.
`O=C(c1cc(Cc2ccccc2)cc(CN2CCCS2(=O)=O)c1)c1ncc2cccnc2c1O` gave an IC50 [6] of 10 nM.
`O=c1[nH]c2c3c(sc2c(=O)n1O)CCCC3` showed an inhibition at 10 µM [1] of -4.5%, a Papp [2] of 1 ×10⁻⁶ cm/s and an IC50 [3] of 940 nM.
`CC(C)c1cn(COCc2ccccc2)c(=O)[nH]c1=O` gave an IC50 [14] of 40 nM, a CC50 [15] of over 20000 nM and an EC50 [16] of 13 nM. The IC50 [17] was over 333000 nM.
`O=C(O)c1cn(Cc2ccc(F)c(Cl)c2)cc(O)c1=O` showed a CC50 [15] of over 200000 nM, an EC50 [4] of 4000 nM and an inhibition at 10 µM [1] of 53%. The selectivity ratio [18] was over 116 and the IC50 [3] was 6000 nM.
In the case of `CCOC(=O)c1cc(=O)c(O)c(C(=O)O)o1`, the IC50 [9] is reported as 2250 nM.
Work on `O=c1cc(Nc2cccc(-c3ccc(Cl)cc3)c2)[nH]c(=O)n1O` yielded an EC50 [4] of over 20000 nM and an IC50 [3] of over 20000 nM.
With `O=c1[nH]c2sc3c(c2c(=O)n1O)CCCC3` the inhibition at 10 µM [1] was -3%, the permeability [2] was 1.1 10^-6 cm/s and the IC50 [3] was 790 nM.
Work on `O=C(NCc1ccc(F)cc1F)c1cn(Cc2ccc(F)cc2)cc(O)c1=O` yielded an EC50 [4] of 900 nM and an inhibition [5] of 14%.
`O=c1cc(Nc2ccc(-c3ccc(O)cc3)cc2)[nH]c(=O)n1O` showed an EC50 [4] of over 20000 nM and an IC50 [3] of 1100 nM.
With `O=C(O)c1cn(Cc2ccccc2)cc(O)c1=O` the inhibition at 10 µM [1] was 38% and the IC50 [3] was over 25000 nM.
Work on `Cn1c(Nc2ccc(-c3ccccc3)cc2)cc(=O)n(O)c1=O` yielded an EC50 [4] of over 20000 nM and an IC50 [3] of over 20000 nM.
`COc1ccc(-c2cccc(Nc3cc(=O)n(O)c(=O)[nH]3)c2)cc1` showed an EC50 [4] of over 20000 nM and an IC50 [3] of 14000 nM.
In the case of `O=c1[nH]c2sc3c(c2c(=O)n1O)CCNC3`, the inhibition at 10 µM [1] is reported as 26%, the Papp [2] is reported as 0.1 ×10⁻⁶ cm/s and the IC50 [3] is reported as 680 nM.
Work on `O=c1cc(Nc2ccc(-c3ccc(Cl)cc3)cc2)[nH]c(=O)n1O` yielded an EC50 [4] of over 20000 nM and an IC50 [3] of 9300 nM.
`O=C(O)C(=O)CC(=O)c1ccc(N2CCCCC2)cc1` gave an IC50 [19] of 4500 nM.
For `Cc1ccc(CNC(=O)c2nc(Cl)c3cccnc3c2O)cc1`, the IC50 [3] was 1800 nM.
`CN(Cc1ccc(F)cc1)C(=O)CC(=O)C(=O)O` gave an IC50 [19] of 50000 nM.
For `O=c1[nH]c2sc(-c3ccccc3)cc2c(=O)n1O`, the inhibition at 10 µM [1] was 2.7%, the Papp [2] was 0.5 ×10⁻⁶ cm/s and the IC50 [3] was 1600 nM.
For `O=c1[nH]c2sccc2c(=O)n1O`, the inhibition at 10 µM [1] was -0.95%, the Papp [2] was 0.1 ×10⁻⁶ cm/s and the IC50 [3] was 400 nM.
In the case of `COc1ccc(-c2ccc(Nc3cc(=O)n(O)c(=O)n3C)cc2)cc1`, the IC50 [3] is reported as over 20000 nM.
In the case of `O=C(O)c1c[nH]cc(O)c1=O`, the inhibition at 10 µM [1] is reported as 13% and the IC50 [3] is reported as 14000 nM.
`O=C(O)c1cn(-c2ccccc2)cc(O)c1=O` gave an inhibition at 10 µM [1] of 8% and an IC50 [3] of over 25000 nM.
`O=c1[nH]c2sc(-c3ccc(Cl)cc3)cc2c(=O)n1O` showed an EC50 [4] of 7600 nM, an inhibition at 10 µM [1] of 33% and a Papp [2] of 0.5 ×10⁻⁶ cm/s. For the same compound, the IC50 [3] was 300 nM.
Compound `COc1cccc(-c2ccc(Nc3cc(=O)n(O)c(=O)[nH]3)cc2)c1` has an EC50 [4] of over 20000 nM and an IC50 [3] of 1200 nM.
Compound `O=c1cc(Nc2ccc(-c3cccc(O)c3)cc2)[nH]c(=O)n1O` has an EC50 [4] of over 20000 nM and an IC50 [3] of 2900 nM.
In the case of `O=C(NCc1ccc(F)cc1F)c1cn(Cc2ccc(F)cc2)ccc1=O`, the EC50 [4] is reported as 6600 nM and the inhibition [5] is reported as 5%.
Work on `CCOC(=O)c1cn(Cc2ccc(F)cc2)cc(O)c1=O` yielded an inhibition at 10 µM [1] of 40%.
`O=c1[nH]c2cc(-c3ccccc3)sc2c(=O)n1O` showed an EC50 [4] of 13000 nM, a CC50 at 24 h [8] of over 50000 nM and an inhibition at 10 µM [1] of 59%. For the same compound, the permeability [2] was 1.4 10^-6 cm/s and the IC50 [3] was 600 nM.
Work on `O=C(O)c1cn(C2CC2)cc(O)c1=O` yielded an inhibition at 10 µM [1] of 2% and an IC50 [3] of over 25000 nM.
Work on `Cn1c(Nc2ccc(-c3ccc(C(F)(F)F)cc3)cc2)cc(=O)n(O)c1=O` yielded an IC50 [3] of over 20000 nM.
With `Cc1ccc(CNC(=O)c2nc(-c3ccccc3)c3cccnc3c2O)cc1` the IC50 [3] was 2800 nM.
`O=C(NCCc1ccc(F)cc1F)c1cn(Cc2ccc(F)cc2)cc(O)c1=O` gave a CC50 [15] of over 50000 nM, an EC50 [4] of 400 nM and a selectivity ratio [18] of over 40. The inhibition [5] was 10%.
